Common to all, as to type: biochemical
The target of test [1] is T1, fXIa (Homo sapiens, UniProt P03951). As to the kind of experiment: Labeling of purified coagulation factors with ABPs, SDS-PAGE and blot. Set-up: complete conversion of the single chain zymogen to the two-chain active form; made in house; host or cells: HEK293 cells expressing EBNA (pCEP4 vector). Particulars: 200 nM fXIa preincubated with 5 μM inhibitor for 60 min, then probe 1:1, 30 min. As for the experimental part:
To determine biotin-labeled ABPs selectivity, four purified coagulation factors (APC, thrombin, fXa, and fXIa) with a constant concentration of 200 nM were incubated separately with each probe (the probe/enzyme ratio was 1) in assay buffer for 30 min at 37 °C. Each enzyme was incubated with each probe in a volume of 40 μL followed by reduction with 20 μL of 3 × SDS/DTT for 5 min at 95 °C. The first well was loaded with 0.5 μL of the protein marker PageRuler Prestained Protein Ladder (Thermo Scientific), and then 10 μL of each sample was run on a 12% (w/v) 15-well gel. SDS–PAGE separation was performed at 200 V for 39 min followed by a wet tank transfer to a nitrocellulose membrane (0.2 μm, Bio-Rad) at 10 V for 60 min. The membrane was blocked with 2.5% BSA in TBS-T (Tris-buffered saline with 0.1% (v/v) Tween 20) for 60 min at room temperature. Next, the membrane was incubated with fluorescent streptavidin Alexa Fluor 647 conjugate (dilution 1:10,000 in TBS-T with 1% BSA) for 60 min. The biotin-labeled ABPs were detected at 658 nm using an Azure Biosystems Sapphire Biomolecular Imager and Azure Spot Analysis software.
For fluorescently labeled probe sample preparation, electrophoresis and membrane transfer were performed as described above. When testing the inhibitor utility, 200 nM fXIa was incubated with inhibitor (final inhibitor concentration 5 μM) for 60 min prior to probe addition. After the membrane was blocked with 2.5% BSA in TBS-T (60 min), the labeled proteins were directly imaged with a […] laser using an Azure Biosystems Sapphire Biomolecular Imager and Azure Spot Analysis software.

In test [2] the target is T2, APC (Homo sapiens, UniProt P04070).
T2 construct: from tissue; host or cells: fresh frozen plasma
T2 sequence (P04070 212-461 limits assumed): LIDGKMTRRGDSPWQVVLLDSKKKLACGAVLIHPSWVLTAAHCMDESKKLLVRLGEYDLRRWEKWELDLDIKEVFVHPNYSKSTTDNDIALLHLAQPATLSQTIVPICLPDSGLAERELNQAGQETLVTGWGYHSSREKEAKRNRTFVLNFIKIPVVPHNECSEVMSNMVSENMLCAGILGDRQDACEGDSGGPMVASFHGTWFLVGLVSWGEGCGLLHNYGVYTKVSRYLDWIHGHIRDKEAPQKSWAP
T2 sequence (P04070 43-197 partner limits assumed): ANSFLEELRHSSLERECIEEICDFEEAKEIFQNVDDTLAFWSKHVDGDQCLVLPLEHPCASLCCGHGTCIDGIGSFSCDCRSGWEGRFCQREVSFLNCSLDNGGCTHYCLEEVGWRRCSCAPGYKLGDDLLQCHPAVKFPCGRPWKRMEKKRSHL
As to the kind of experiment: Inhibition kinetics (kobs/I) of inhibitor and fluorescent ABP. Conditions: pseudo-first-order, ABP/inhibitor 308 nM to 50 μM, 10 nM enzyme, substrate 154 μM SMA5, 37 °C, 30 min; mean ± s.d., n = 3; SD. As for the experimental part: (§1) Protein C, factor X, and prothrombin were purified from fresh frozen plasma and then activated as previously described.[33]
(§2) All kinetic assays were performed using a spectrofluorometer (Molecular Devices SpectraMax Gemini XPS) on 96-well, white, flat bottom, nontreated plates (Corning). The parameters were as follows: excitation/emission wavelength, 355/460 nm (cutoff, 455 nm); varying concentrations of substrates, ABPs, inhibitor, and enzymes. The assay buffer (20 mM Tris-base, 150 mM NaCl, 5 mM CaCl2, pH 7.4) was prepared at room temperature, and the enzyme kinetic studies were performed at 37 °C. All enzymes were preincubated in assay buffer for 15 min at 37 °C before addition to the wells. Each assay was repeated at least twice, and the data represent the average of these repetitions. The obtained results were analyzed using SoftMax (Molecular Devices), GraphPad Prism, and Microsoft Excel software.
(§3) The kobs/I parameters for APC, thrombin, fXa, and fXIa were measured under pseudo-first-order conditions. […] Next, 60 μL of APC, thrombin, fXa, or fXIa (at a concentration of 10 nM) preincubated at 37 °C was added, and the fluorescence increase over time was measured (λex = 355 nm, λem = 460 nm) for 30 min. The kobs/I parameters were calculated in GraphPad Prism and Microsoft Excel software.[41]

Test [3] addresses T3, fXa (Homo sapiens, UniProt P00742).
T3 construct: from tissue; host or cells: fresh frozen plasma
The description is as above. Conditions: pseudo-first-order, ABP/inhibitor 308 nM to 50 μM, 10 nM enzyme, substrate 50 μM SMII18, 37 °C, 30 min; mean ± s.d., n = 3; SD. On the procedure:
as §1, §2, §3

In test [4] the target is T1, fXIa. The test is described as above. Set-up: complete conversion of the single chain zymogen to the two-chain active form; made in house; host or cells: HEK293 cells expressing EBNA (pCEP4 vector). Conditions: pseudo-first-order, ABP/inhibitor 308 nM to 50 μM, 10 nM enzyme, substrate 100 μM SMX1, 37 °C, 30 min, corrected for substrate KM; mean ± s.d., n = 3; SD. On the procedure: as §2
The kobs/I parameters for APC, thrombin, fXa, and fXIa were measured under pseudo-first-order conditions. Inhibitor and ABP were serially diluted in assay buffer until the seventh well to obtain concentrations ranging from 308 nM to 50 μM. […] Next, 60 μL of APC, thrombin, fXa, or fXIa (at a concentration of 10 nM) preincubated at 37 °C was added, and the fluorescence increase over time was measured (λex = 355 nm, λem = 460 nm) for 30 min. The kobs/I parameters were calculated in GraphPad Prism and Microsoft Excel software.[41]

Values joined by “and” are separate entries in the source; they are usually repeats but may differ in a detail not shown here. Equal entries are not always repeated.

T1 sequence (P03951 388-625 limits assumed): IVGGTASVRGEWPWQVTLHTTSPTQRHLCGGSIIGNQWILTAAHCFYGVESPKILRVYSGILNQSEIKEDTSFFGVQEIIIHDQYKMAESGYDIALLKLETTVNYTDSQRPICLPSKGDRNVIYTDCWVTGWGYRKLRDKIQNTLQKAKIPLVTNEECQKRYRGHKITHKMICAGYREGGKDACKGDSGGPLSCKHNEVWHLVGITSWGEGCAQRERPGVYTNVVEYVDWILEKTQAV
T1 sequence (P03951 19-387 partner limits assumed): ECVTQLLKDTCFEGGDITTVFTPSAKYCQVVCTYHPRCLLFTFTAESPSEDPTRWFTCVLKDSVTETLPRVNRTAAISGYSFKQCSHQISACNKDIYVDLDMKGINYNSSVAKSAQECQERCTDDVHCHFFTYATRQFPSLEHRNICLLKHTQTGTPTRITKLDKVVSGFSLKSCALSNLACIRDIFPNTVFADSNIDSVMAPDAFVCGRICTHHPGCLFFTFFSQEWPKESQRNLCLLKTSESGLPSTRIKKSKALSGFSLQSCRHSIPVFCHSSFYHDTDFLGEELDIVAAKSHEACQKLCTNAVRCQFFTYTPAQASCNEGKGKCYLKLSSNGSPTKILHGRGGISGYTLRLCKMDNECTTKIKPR
T3 sequence (P00742 235-488 limits assumed): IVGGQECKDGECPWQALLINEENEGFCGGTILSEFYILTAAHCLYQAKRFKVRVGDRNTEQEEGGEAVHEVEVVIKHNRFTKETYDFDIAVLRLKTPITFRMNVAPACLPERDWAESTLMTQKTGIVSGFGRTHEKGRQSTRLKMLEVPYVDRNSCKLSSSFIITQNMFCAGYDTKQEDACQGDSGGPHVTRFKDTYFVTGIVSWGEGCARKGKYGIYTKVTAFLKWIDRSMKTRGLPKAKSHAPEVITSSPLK
T3 sequence (P00742 41-179 partner limits assumed): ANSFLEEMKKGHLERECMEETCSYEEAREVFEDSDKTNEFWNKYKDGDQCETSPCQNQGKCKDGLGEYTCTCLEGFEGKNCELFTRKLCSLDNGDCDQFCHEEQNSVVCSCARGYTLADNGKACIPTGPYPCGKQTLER

Take “Ac-Tyr(2,6-Cl2-Z)-Nle-Glu(Bzl)-ArgP(OPh)2 [I-SMXI5]”: the “effect of preblocking fXIa on P-SMXI52 labeling” value in test [1] was “completely inhibited the fluorescent signal”. In test [2], the “kobs/I APC” value is reported as 1,570 ± 20 M^-1 s^-1. Besides, the “kobs/I fXa” value in test [3] was found to be 100 ± 13 M⁻¹ s⁻¹. In test [4], the “kobs/I fXIa” value is 54,700 ± 2,800 M^-1 s^-1 and 54,700 ± 2800 M^-1 s^-1.
